From patent US8357659B2, “Method of treating pain or itching with APETx2 peptide toxin” (priority 2008, dated 2013)

Tests used:
heteromer ASIC2a+3 = target: T1, heteromer ASIC2a+3 (Rattus norvegicus, UniProt O35240+Q62962); conditions: cited from earlier work
T1 sequence (Q62962 1-512): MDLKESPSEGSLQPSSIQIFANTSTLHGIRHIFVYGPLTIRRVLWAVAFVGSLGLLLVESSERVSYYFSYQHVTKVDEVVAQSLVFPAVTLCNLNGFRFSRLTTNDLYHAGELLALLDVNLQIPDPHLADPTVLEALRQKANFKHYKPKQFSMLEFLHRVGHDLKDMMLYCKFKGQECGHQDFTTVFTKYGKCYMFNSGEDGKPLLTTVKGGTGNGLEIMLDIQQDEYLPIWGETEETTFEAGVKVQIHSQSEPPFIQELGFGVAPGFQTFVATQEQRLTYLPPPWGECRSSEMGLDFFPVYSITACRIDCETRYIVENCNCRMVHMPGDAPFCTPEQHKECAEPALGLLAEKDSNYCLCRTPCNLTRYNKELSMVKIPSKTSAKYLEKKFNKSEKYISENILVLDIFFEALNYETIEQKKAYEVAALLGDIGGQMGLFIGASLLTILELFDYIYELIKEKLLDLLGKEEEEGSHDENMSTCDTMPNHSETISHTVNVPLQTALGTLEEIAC
T1 sequence (O35240 1-533): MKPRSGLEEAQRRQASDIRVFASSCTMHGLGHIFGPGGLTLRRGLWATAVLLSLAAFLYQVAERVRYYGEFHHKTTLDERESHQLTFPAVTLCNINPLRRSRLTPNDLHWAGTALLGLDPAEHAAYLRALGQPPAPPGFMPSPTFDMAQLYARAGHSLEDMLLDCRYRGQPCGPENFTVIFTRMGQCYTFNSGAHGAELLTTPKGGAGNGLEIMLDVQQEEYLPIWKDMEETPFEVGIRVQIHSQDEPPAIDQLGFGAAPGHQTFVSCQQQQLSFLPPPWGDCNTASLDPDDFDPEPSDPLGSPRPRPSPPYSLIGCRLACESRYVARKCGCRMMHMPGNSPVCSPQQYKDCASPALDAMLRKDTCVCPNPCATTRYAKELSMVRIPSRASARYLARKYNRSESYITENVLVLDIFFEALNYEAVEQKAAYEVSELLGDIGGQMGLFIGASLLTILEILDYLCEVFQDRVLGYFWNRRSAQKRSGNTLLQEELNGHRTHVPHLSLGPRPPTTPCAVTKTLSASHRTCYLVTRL

ASIC1a = target: T2, ASIC1a (Rattus norvegicus, UniProt P55926); conditions: cited from earlier work
T2 sequence (P55926 1-526): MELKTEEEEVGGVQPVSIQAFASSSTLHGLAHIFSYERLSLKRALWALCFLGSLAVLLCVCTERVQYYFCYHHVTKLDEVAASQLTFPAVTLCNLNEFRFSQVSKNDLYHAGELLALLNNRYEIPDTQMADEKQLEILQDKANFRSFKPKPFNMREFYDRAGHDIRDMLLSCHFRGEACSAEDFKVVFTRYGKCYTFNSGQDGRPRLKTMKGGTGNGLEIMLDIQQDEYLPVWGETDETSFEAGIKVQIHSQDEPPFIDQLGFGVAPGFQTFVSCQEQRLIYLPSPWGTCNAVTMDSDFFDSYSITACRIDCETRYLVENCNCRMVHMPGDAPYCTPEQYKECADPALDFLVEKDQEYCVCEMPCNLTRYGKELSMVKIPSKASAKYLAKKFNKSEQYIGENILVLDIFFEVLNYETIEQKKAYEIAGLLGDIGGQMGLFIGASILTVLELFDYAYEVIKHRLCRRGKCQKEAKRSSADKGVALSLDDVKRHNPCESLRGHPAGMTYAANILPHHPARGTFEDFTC

[1] = system: thermal hyperalgesia induced by CFA; test: Inflammation-induced (CFA) thermal hyperalgesia in rats, hotplate at 50° C.; assay type: in vivo, rat
Method: Sensitivity to heat of adult male Wistar rats (Charles River, France) was tested by measuring the time taken by the animal to retract one of its hind paws when placed on a hotplate at 50° C. (Bioseb, France), before and after induction of inflammation by subcutaneous injection of a solution of Freund's complete adjuvant (CFA, Sigma-Aldrich, France). The rats were acclimatised to the experimentation room for at least 30 minutes and each measurement was performed in duplicate. An initial measurement was performed before induction of inflammation. The rats were subsequently anaesthetised (isofluorane) while 150 μl of CFA diluted 1:1 with a saline solution (0.9% NaCl) containing either toxins (PcTx1 or APETx2, 120 nM and 20 μM, respectively) or the vehicle was injected (26G needle mounted on a 1 ml syringe) subcutaneously into the plantar side of one of the hind paws. The time taken by the animal to lift the injected hind paw was subsequently measured at 50° C., 2, 4 and 24 hours after the injection of CFA.
ASIC3 channel-specific iRNA (no. 1121; CTACACGCTATGCCAAGGA, SEQ ID NO: 1) and its control (no. 1121S; GCTCACACTACGCAGAGAT, SEQ ID NO: 2) were designed in the laboratory and were synthesised by MWG Biotech Company (Germany). The ASIC3-specific iRNA was validated by quantification of the messenger RNA levels by quantitative RT-PCR for each ASIC channel and for the TRPV1 channel, following intrathecal injections into the lumbar region of the spinal cord of rats, at a rate of one injection per day for 3 consecutive days, before the animal was sacrificed. The same procedure was followed before induction of inflammation by CFA. Each injection was 10 μl in volume, containing 2 μg of iRNA mixed with the transfection agent i-Fect (Neuromics) at a ratio of 1 to 4.

peptide of 42 amino acids (SEQ ID NO: 3), three disulphide bonds, from sea anemone Anthopleura elegantissima; blocks ASIC3 [APETx2]
effect on the heteromer ASIC2a+3 (heteromer ASIC2a+3): does not have any effect
effect on ASIC1a isoform (ASIC1a): does not have any effect
development of thermal hyperalgesia ([1]; toxin concomitantly injected with CFA (APETx2 20 μM, PcTx1 120 nM), four hours after CFA): does not develop
thermal hyperalgesia behaviour versus vehicle control animals ([1]; twenty hours after the injection of CFA, data not represented): do not display any behaviour different
